In patent US20260355151A1, “SPIROCYCLIC DERIVATIVE-CONTAINING SALT OR CRYSTAL FORM, AND PREPARATION METHOD THEREFOR AND USE THEREOF” (SHUJING BIOPHARMA CO., LTD, priority 2022, published 2026):
Counter-ions that a name gives are not always drawn. Like-named read-outs stand apart in the source and are kept apart here.

Tests used:
TAAR1 receptor = target: T1, TAAR1 receptor (Homo sapiens, UniProt Q96RJ0); assay: TAAR1 receptor cAMP agonist test; assay type: cell-based; design: Emax: dose or concentration left out as unconfirmed
T1 sequence (Q96RJ0 1-339): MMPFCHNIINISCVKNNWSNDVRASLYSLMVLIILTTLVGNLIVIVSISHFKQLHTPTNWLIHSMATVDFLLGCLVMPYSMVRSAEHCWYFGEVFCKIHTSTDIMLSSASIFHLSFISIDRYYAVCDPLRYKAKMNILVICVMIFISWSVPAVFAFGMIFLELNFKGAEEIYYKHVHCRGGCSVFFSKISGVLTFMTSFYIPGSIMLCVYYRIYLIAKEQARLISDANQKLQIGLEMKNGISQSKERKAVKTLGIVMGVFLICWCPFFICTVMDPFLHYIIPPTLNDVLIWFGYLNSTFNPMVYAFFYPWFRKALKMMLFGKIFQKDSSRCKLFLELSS
Description: The cAMP detection kit was purchased from Cisbio; the […] cell line stably expressing TAAR1 receptor was constructed by Shanghai Shujing Biotechnology Co., Ltd.; IBMX was purchased from Sigma; Phenethylamine (PEA); ProxiPlate-384 well plate was purchased from PerkinElmer; HBSS was purchased from Thermo Fisher Scientific Company.

5-HT1A receptor = target: T2, 5-HT1A receptor (Homo sapiens, UniProt P08908); assay: 5-HT1A receptor cAMP agonist test; assay type: cell-based
T2 sequence (P08908 1-422): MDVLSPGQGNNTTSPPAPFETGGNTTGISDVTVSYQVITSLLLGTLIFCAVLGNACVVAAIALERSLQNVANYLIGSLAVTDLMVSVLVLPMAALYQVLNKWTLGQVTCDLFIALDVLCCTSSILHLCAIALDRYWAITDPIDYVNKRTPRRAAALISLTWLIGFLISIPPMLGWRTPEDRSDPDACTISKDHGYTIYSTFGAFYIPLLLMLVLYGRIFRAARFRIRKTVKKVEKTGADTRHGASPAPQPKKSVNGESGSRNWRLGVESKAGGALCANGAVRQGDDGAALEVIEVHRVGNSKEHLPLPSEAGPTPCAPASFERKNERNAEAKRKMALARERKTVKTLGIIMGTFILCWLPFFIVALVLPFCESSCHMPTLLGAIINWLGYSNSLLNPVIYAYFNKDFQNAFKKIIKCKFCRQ
Description: The cAMP detection kit was purchased from Cisbio; the HEK293 cell line stably expressing 5-HT1A receptor was constructed by Shanghai Shujing Biotechnology Co., Ltd.; Serotonin, Forskolin and IBMX were purchased from Sigma; ProxiPlate-384-well plates was purchased from PerkinElmer; HBSS was purchased from Thermo Fisher Scientific.
Activation rate (activity %)=(negative control ratio-compound ratio)/(negative control ratio-positive control ratio)×100%

[1] = tested on: high spontaneous activity induced by MK-801 in mice; assay: Inhibition of high spontaneous activity induced by MK-801 in mice; assay type: in vivo, male C57Bl/6J mice
Method: Compounds to be tested: compounds in the examples of the present application, self-made.
(§1) Experimental animals: 18-22 g male C57Bl/6J mice, purchased from Shanghai Slack Experimental Animal Co., Ltd.
(§2) before the start of the experiment, animals were randomly grouped according to body weight.
before the experiment, the mice were first adapted to the experimental environment for at least 1 hour. That is, the animals were transferred from the breeding room to the laboratory and moved freely in the cage.
(§3) Drug preparation: taking the compound to be tested, adding pure water and performing ultrasonication.
(§4) The animals were randomly divided into blank group, model group, and administration group according to body weight, 9 mice/group, and the detailed administration information is shown in the following table:
(§5) T-30 min oral administration of compound: compound to be tested or solvent (pure water) was administered orally by gavage, and put into test box (test box size length*width*height=27*27*40 cm) immediately after administration, recording the spontaneous activity of the mice within 30 minutes.
The blank control group was injected with normal saline.
(§6) The activities of these animals (movement distance in the test box) were automatically recorded by the camera, and analyzed with ANY MAZE software, and the ED50 values were calculated.

[2] = tested on: high spontaneous activity induced by PCP in mice; assay: Inhibition of high spontaneous activity induced by PCP in mice; assay type: in vivo, male C57Bl/6J mice
Description: Compounds to be tested: compounds of the examples of the present application, self-made.
Phencyclidine hydrochloride (PCP): purchased from Shanghai Yuansi Standard Science Technology Co., Ltd., specification: 5 g.
as §1, §2
before the experiment, the mice were first adapted to the experimental environment for at least 1 hour. That is, animals were transferred from the feeding room to the laboratory, and moved freely in the cage.
as §3, §4, §5
T0 min intraperitoneal injection of modeling drug: 30 minutes after compound administration, the mice were taken out, and administered with PCP (5 mg/kg) by intraperitoneal injection. The blank control group was injected with pure water. After the administration of PCP, the animals were immediately put back into the test box, and the test was continued for 60 minutes.
as §6

[3] = Equilibrium solubility in water for 24 hours; assay type: physicochemical; settings: deionized water, 37 °C
Method: Investigating the equilibrium solubility of each hydrochloride crystal form of Compound A in water for 24 hours.
Excess samples of hydrochloride crystal form I and hydrochloride crystal form II of Compound A were weighed and placed in different 10 mL centrifuge tubes, and 1 mL of deionized water was added, sealed with a parafilm, shaking at a constant temperature of 37 °C and 150 rpm for 24 hours; after passing through a 0.45 μm organic filter, the sample was diluted and injected for HPLC analysis.

[4] = Solid stability experiment (high temperature, high humidity, light); assay type: physicochemical; settings: for chemical stability: high temperature, high humidity, or illumination, conclusion in words; for degraded at 240 h / degraded at 480 h / degraded at 2040 h: solid, read-out: Increase of total impurities; for degraded at 240 h: day 10; for degraded at 480 h: day 20; for degraded at 2040 h: day 85
Method: Investigating the chemical stability of each hydrochloride crystal form of Compound A under high temperature, high humidity, and light conditions.
Appropriate amounts of hydrochloride crystal form I and hydrochloride crystal form II of Compound A were weighed and placed in weighing dishes respectively; three samples for each salt were prepared, and placed respectively in a oven at 60 °C, a drying dish with RH 92.5%, and a stability test chamber with an illumination condition of 5000 lx for 85 days. After mixing all samples evenly at day 0, day 10, day 20, and day 85, samples were taken and dissolved in acetonitrile and water, and the content and impurity changes were detected by HPLC-related substance detection method.

## CNC[C@@H]1OCC2(CC2)c2sccc21 (single isomer, unassigned) [Compound A]
TAAR1 receptor; conclusion in words
  agonist effect on the TAAR1 receptors: have an agonist effect on the TAAR1 receptors
TAAR1 receptor; read-out: TAAR1 Max Act %
  Emax: 95.5%
5-HT1A receptor; activation rate, positive control Serotonin, final concentration 10^−6M, read-out: 5-HT1A Max Act %
  Emax at 1 µM: 95.2%
5-HT1A receptor; conclusion in words
  agonistic effect on 5-HT1A receptors: has agonistic effect on 5-HT1A receptors
[1]; MK-801 model, conclusion in words
  inhibitory effect compared to SEP-363856: lower minimum effective dose and stronger inhibitory effect
[1]; Mus musculus, po, 2.5 h, p.o. 30 min before MK-801 0.3 mg/kg i.p., movement distance, 150 min, read-out: MED (minimum effective dose)
  minimal effective dose: 10 mg/kg
[1]; p.o., conclusion in words
  inhibition of high spontaneous activity induced by MK-801: can significantly inhibit the high spontaneous activity induced by MK-801 in mice, and the inhibitory effect is gradually enhanced with the increase of the compound dosage, and there is a good dose-dependent relationship
[2]; Mus musculus, po, 1 h, p.o. 30 min before PCP 5 mg/kg i.p., movement distance, 60 min, read-out: MED (minimum effective dose)
  minimal effective dose: 0.1 mg/kg
[2]; PCP model, conclusion in words
  inhibitory effect compared to SEP-363856: lower minimum effective dose and stronger inhibitory effect
[2]; p.o., conclusion in words
  inhibition of high spontaneous activity induced by PCP: can significantly inhibit the high spontaneous activity induced by PCP in mice, and the inhibitory effect is gradually enhanced with the increase of the compound dosage, and there is a good dose-dependent relationship

## CNC[C@@H]1OCC2(CC2)c2sccc21 [Hydrochloride crystal form I, (R)-1-(4′H,6′H-spiro[cyclopropane-1,7′-thieno[3,2-c]pyran]-4′-yl)-N-methylmethylamine]
[3]; water
  solubility thermodynamic at 24 h: 155 mg/mL
[4]
  chemical stability: good chemical stability
[4]; High humidity of RH 92.5%
  degraded at 240 h: < 0.1%
  degraded at 480 h: < 0.1%
  degraded at 2040 h: 0.199%
[4]; Illumination of 5000 lx
  degraded at 240 h: < 0.1%
  degraded at 480 h: < 0.1%
  degraded at 2040 h: < 0.1%

## CNC[C@@H]1OCC2(CC2)c2sccc21 [Hydrochloride crystal form II, (R)-1-(4′H,6′H-spiro[cyclopropane-1,7′-thieno[3,2-c]pyran]-4′-yl)-N-methylmethylamine]
[3]; 1440 min
  Equilibrium solubility: 162.30 mg/mL
[4]
  chemical stability: good chemical stability
[4]; High temperature of 60 °C
  degraded at 240 h: < 0.1%
  degraded at 480 h: < 0.1%
  degraded at 2040 h: 0.133%
